Test results from patent US20260232666A1, “COMPOSITIONS AND METHODS FOR INHIBITION OF RAS” (TheRas, Inc., priority 2023, published 2026).

Legend:
[1] = molecular target: T1, GDP-loaded KRAS4b (amino acids 1-169) G12C/C118S protein (Homo sapiens, UniProt P01116, C118S/G12C); assay: Covalent cysteine 12 modification by MALDI-TOF MS, GDP-loaded KRAS G12C; assay type: binding; details: 15 minutes reaction time point
T1 construct: KRAS4b (amino acids 1-169) G12C/C118S protein; made in house
Protocol: (§1) Biological Example 1: Covalent Cysteine 12 Modification Analysis Using Matrix Assisted Laser Desorption Ionization-Time of Flight Mass Spectrometry (MALDI-TOF MS)
(§2) MALDI-TOF MS analysis was performed using 1 μM protein (KRAS G12C), and 1:2.5 protein to compound ratio.
(§3) Reaction: 1 μM of GppNHp, GTP, or GDP-loaded KRAS4b (amino acids 1-169) G12C/C118S protein (produced in-house by Protein Expression Laboratory, FNLCR/Leidos Biomed) in 20 mM 4-(2-hydroxyethyl)-1-piperazineethanesulfonic acid (HEPES) buffer containing 150 mM NaCl, 1 mM MgCl2, pH 7.3 was prepared freshly before assay. Twelve-μL aliquots of protein were dispensed onto low volume 384-well plate, then 30 nL of tested compounds from 1 mM DMSO stocks were added to appropriate wells using ECHO 555 acoustic liquid handler (Labcyte Inc.). For each reaction/assay, three blanks were prepared by mixing 12 μL of protein solution with 30 nL DMSO. The contents of the wells were carefully mixed by aspiration, and then each plate was sealed with an adhesive cover, centrifuged at 2000 g for 1 minute, and kept in the dark at room temperature until 5 min, 15 min, 30 min, 2 h, or 6 h collections.
(§4) Target pretreatment: Before each assay MALDI target (Bruker MPT 384 ground steel BC) was pre-treated by pipetting on each spot 0.75 μL of saturated sinapinic acid in acetonitrile (ACN).
(§5) Sample preparation: At collection time point, 2 μL of reaction mixtures were pipetted out into 15 μL MALDI matrix solution (saturated solution of sinapinic acid in 1:1 ACN:water solution containing 0.75% trifluoroacetic acid (TFA)) deposited on 384 well polypropylene plate. Resulting solution was mixed by aspiration, centrifuged at 2000 g for 1 minute, then 1.5 μL aliquots were dispensed on pre-treated MALDI target using Beckman Coulter Biomek FXP 96/384-Span-8 Laboratory Automation Workstation. Finally, the MALDI target was dried under mild vacuum to produce spots with fine crystalline structure.
(§6) Measurements: MALDI-TOF measurements were performed on a Bruker Daltonics rapiflex Tissuetyper TOF-TOF mass spectrometer using linear mode and mass range from 18.6 to 21.6 kDa. Detector gain was set to 3.3×(483 V), sample rate to 5 GS/s, real time smoothing to medium (175 MHz), laser smart beam pattern was set to: “MS Thin Layer M5”, and the laser frequency was 10000 Hz. Spectra were automatically collected using custom AutoXecute method. Laser power was auto adjusted using fuzzy control. The peak selection range was set to be between 19000 and 21500 Da. Peak evaluation uses half width parameter set to be smaller than 40 Da for processed spectrograms (centroid peak detection; smoothed by SavitzkyGolay algorithm using 7 m/z width and 2 cycles; baseline was subtracted using median algorithm with flatness 1 and median level 0.01). Fuzzy control used Proteins/Oligonucleotides protocol with minimum half width 1/10 times above threshold. Up to 40000 satisfactory shots were collected in 10000 shot steps. Dynamic termination was implemented to finish data collection when peak signal/noise ratio was reaching value of 50.
(§7) Spectra processing: Spectra were smoothed by SavitzkyGolay algorithm using 7 m/z width and three cycles. Centroid peak detection algorithm was used with signal to noise threshold set to 6, relative intensity threshold 4%, peak width 10 m/z and median baseline subtraction using flatness of 1 and median level of 0.01. Peak intensity and area under the peak were evaluated and recorded for all peaks between 19,300 Da and 21,550 Da.
(§8) Calculation of percent modification: Percent modification was calculated as a ratio of peak height for protein modified by compound to sum of peak height of remaining protein plus peak height for protein modified by compound. If multiple modifications were observed each was calculated as a ratio of peak height for given modification versus sum of peak heights for all observed protein species. Data reported in Table 4 are from 15 minutes reaction time point. […]

[2] = molecular target: T2, GppNHp-loaded KRAS4b (amino acids 1-169) G12C/C118S protein (Homo sapiens, UniProt P01116, C118S/G12C); assay: Covalent cysteine 12 modification by MALDI-TOF MS, GppNHp-loaded KRAS G12C; assay type: binding; details: 15 minutes reaction time point
T2 construct: KRAS4b (amino acids 1-169) G12C/C118S protein; made in house
Protocol: as §1, §2, §3, §4, §5, §6, §7, §8

pERK in NCI-H358 cells = assay: Cell-based pERK HTRF assay (pERK inhibition in H358 cells); details: Homo sapiens, NCI-H358, 0.5 h, 30 min incubation
Protocol: Biological Example 3: Cell-Based pERK HTRF Assay
pERK assays (Perkin Elmer) were used to determine the effectiveness of compounds of the present disclosure in disrupting KRAS G12C protein/effector signaling in cells.
On Day 1, cells (NCI-H358) were seeded into 96-well plates at 4×10^4 cells/well in complete growth media (RPMI, 10% FBS).
On Day 2, cells were treated with compounds at 0.25% DMSO. The source plate was created with compounds diluted in media at 5-fold the final assay concentration. The compounds were run in a 9-point concentration curve starting at 75 μM, with a 3-fold dilution between concentrations. 20 μL was transferred onto the cell plates (final volume in wells was 100 μL). Plates were harvested after 30 min incubation by aspirating media and adding kit-supplied 1× supplemented lysis buffer to all wells (75 μl per well). Plates were then placed on a plate shaker and incubated at 850 rpm for an additional 30 min.
Antibody mixture solution was prepared by diluting aliquoted d2 and Eu Cryptate antibodies 1:20 in kit supplied detection buffer, then mixed the diluted antibodies solutions (1:1 v:v). 4 μL of this solution was then added to a 384-well detection plate (Perkin Elmer; 6008230).
Samples were homogenized by pipetting up and down and then transferred (16 μL of cell lysates) from the 96-well cell culture plate to two wells of the HTRF 384-well detection plate containing the antibody solution. Plates were centrifuged (524 g for […]) and allowed to incubate between 4 and 24 h at room temperature. Maximum signal is reached after 4 h incubation time and remains stable over a period of 24 hours. Therefore, readings can be made between 4 and 24 h of incubation. Plates were centrifuged again (524 g for 1 min), and analyzed on the En Vision plate reader using the following settings: Excitation 320 nm, Bandwidth 75 nm; Emission 615 nm, Bandwidth 85 nm; Gain 100%; Flashes 100; Lag 60 μs.
The percent of modification of GppNHp, GTP, or GDP loaded KRAS G12C by MALDI-TOF MS, biochemical Raf1 RBD-KRAS G12C-GppNHp disruption assay IC50, and pERK inhibition IC50 of selected compounds described herein are shown in Table 4. For percent of modification at 15 minutes (MALDI-TOF MS) of GppNHp, GTP, or GDP loaded KRAS G12C: A: percent of modification ≥70%; B: 50≤percent of modification <70%; C: 10%≤percent of modification <50%; D: percent of modification <10%. […] For pERK inhibition in H358 cell assay: A: IC50≤0.1 μM; B: 0.1 μM<IC50≤1 μM; C: IC50>1 μM. Blanks in the table represent that compound was not tested in the indicated assay.

[3] = molecular target: T3, GTP-loaded KRAS4b (amino acids 1-169) G12C/C118S protein (Homo sapiens, UniProt P01116, C118S/G12C); assay: Covalent cysteine 12 modification by MALDI-TOF MS, GTP-loaded KRAS G12C; assay type: binding; details: 15 minutes reaction time point
T3 construct: KRAS4b (amino acids 1-169) G12C/C118S protein; made in house
Protocol: as §1, §2, §3, §4, §5, §6, §7, §8

SMILES	GDP-KRAS G12C percent of modification [1]	GppNHp-KRAS G12C percent of modification [2]	IC50 (pERK in NCI-H358 cells) [nM]	GTP-KRAS G12C percent of modification [3]
COC1CC(COc2nc(N(C)C3CCN(C(=O)/C=C/c4nc(C(C)(F)F)no4)C3C)c3cc(Cl)c(-c4ccc(F)c5sc(N)c(C#N)c45)c(F)c3n2)N(C)C1 (centres unmarked) [Compound 190]	B (50≤percent of modification <70%)	B (50≤percent of modification <70%)	< 100	B (50≤percent of modification <70%)
C[C@@H]1CN(c2nc(OC[C@@]34CCCN3C[C@H](F)C4)nc3c(F)c(-c4ccc(F)c5sc(N)c(C#N)c45)c(Cl)cc23)[C@@H](C)CN1C(=O)/C=C/c1nc(C(C)(F)F)no1 [Compound 191]	B (50≤percent of modification <70%)	B (50≤percent of modification <70%)	100 to 1000	B (50≤percent of modification <70%)
C=CC(=O)N1CC[C@@H](N(C)c2nc(O[C@@H](C)[C@@H]3[C@@H](OC)CCN3C)nc3c(F)c(-c4ccc(F)c5sc(N)c(C#N)c45)c(C(F)(F)F)cc23)[C@H]1C [Compound 193]	A (percent of modification ≥70%)	A (percent of modification ≥70%)	< 100	A (percent of modification ≥70%)
C=CC(=O)N1CC[C@@H](N(C)c2nc(O[C@@H](C)[C@@H]3C[C@@H](OC)CN3C)nc3c(F)c(-c4ccc(F)c5sc(N)c(C#N)c45)c(Cl)cc23)[C@H]1C [Compound 194]	A (percent of modification ≥70%)	A (percent of modification ≥70%)	< 100	A (percent of modification ≥70%)
C=CC(=O)N1CC[C@@H](N(C)c2nc(O[C@@H](C)[C@@H]3[C@@H](OC)CCN3C)nc3c(F)c(-c4ccc(F)c5sc(N)c(C#N)c45)c(Cl)cc23)[C@H]1C [Compound 195]	A (percent of modification ≥70%)	A (percent of modification ≥70%)	< 100	A (percent of modification ≥70%)
C=CC(=O)N1CC[C@@H](N(C)c2nc(OC[C@@H]3[C@@H](OC)CCN3C)nc3c(F)c(-c4ccc(F)c5sc(N)c(C#N)c45)c(Cl)cc23)[C@H]1C [Compound 196]	A (percent of modification ≥70%)	A (percent of modification ≥70%)	< 100	A (percent of modification ≥70%)
C=CC(=O)N1CC[C@@H](N(C)c2nc(OC[C@@H]3[C@@H](OC)CCN3C)nc3c(F)c(-c4ccc(F)c5sc(N)c(C#N)c45)c(C(F)(F)F)cc23)[C@H]1C [Compound 197]	A (percent of modification ≥70%)	A (percent of modification ≥70%)	< 100	A (percent of modification ≥70%)
C=CC(=O)N1CC[C@@H](N(C)c2nc(OC[C@@H]3C(=C(F)F)CCN3C)nc3c(F)c(-c4ccc(F)c5sc(N)c(C#N)c45)c(Cl)cc23)[C@H]1C [Compound 198]	B (50≤percent of modification <70%)	B (50≤percent of modification <70%)	< 100	B (50≤percent of modification <70%)
C=CC(=O)N1CC[C@@H](N(C)c2nc(OC[C@@H]3C(=C(F)F)CCN3C)nc3c(F)c(-c4ccc(F)c5sc(N)c(C#N)c45)c(C(F)(F)F)cc23)[C@H]1C [Compound 199]	C (10%≤percent of modification <50%)	C (10%≤percent of modification <50%)	< 100	C (10%≤percent of modification <50%)
C=CC(=O)N1CC[C@@H](N(C)c2nc(O[C@@H](C)[C@@H]3C(=C)CCN3C)nc3c(F)c(-c4ccc(F)c5sc(N)c(C#N)c45)c(Cl)cc23)[C@H]1C [Compound 200]	C (10%≤percent of modification <50%)	A (percent of modification ≥70%)	< 100	B (50≤percent of modification <70%)
C=CC(=O)N1CC[C@@H](N(C)c2nc(O[C@@H](C)[C@@H]3C(=C(F)F)CCN3C)nc3c(F)c(-c4ccc(F)c5sc(N)c(C#N)c45)c(Cl)cc23)[C@H]1C [Compound 201]	B (50≤percent of modification <70%)	B (50≤percent of modification <70%)	100 to 1000	C (10%≤percent of modification <50%)
